In patent publication US9856511B2, “Protease deubiquitinating inhibitor screening” (priority 2011, dated 2018):

Biological target: T1, human 20S proteasome (Homo sapiens, UniProt P28072+P28074+Q99436)
T1 construct: purchased Boston Biochem E-360
Assay: In vitro proteasome activity assay (Suc-LLVY-AMC, Z-LLE-AMC, Boc-LRR-AMC)
Type: biochemical
Settings: molar excess of b-AP15
Description: 20S CP contains the β1, β2 and […] proteolytic subunits responsible for caspase-like, trypsin-like and chymotrypsin-like activities of the proteasome, respectively (18).
In vitro proteasome activity assays were performed in black 96-well microtiter plates using human 20S proteasome (Boston Biochem) in reaction buffer (25 mM Hepes, 0.5 mM EDTA, 0.03% SDS) with Suc-LLVY-AMC, Z-LLE-AMC or Boc-LRRAMC used as substrates for proteasome activity. De-ubiquitinase activity assays were performed with human 19S RP (Boston Biochem) with ubiquitin-AMC as substrate. For xenograft studies a 100-μl-cell suspension containing 1×10^6 FaDu head-neck or 2×10^5 Lewis Lung Carcinoma (LLC) cells were injected subcutaneously into the flank of SCID or C57BL/6J mice. Upon tumor take mice were randomized into control or treatment groups and administered with 5 mg kg^−1 b-AP15 or vehicle. In vivo levels of apoptosis and cell death were determined from the detection of caspase cleaved and total levels of cytokeratin-18 in plasma using M30 Apoptosense® and M65 ELISA®s assays (Peviva). […]
In vitro proteasome activity assays using 20S CP (2 nM) (Boston Biochem) were performed at 37° C. in 100-μl reaction buffer (25 mM Hepes, 0.5 mM EDTA, 0.03% SDS). […] Fluorescence was monitored using Wallac Multilabel counter or Tecan Infinite M1000 equipped with 360 nm excitation and 460 nm emission filters. […]

## C=CC(=O)N1C/C(=C\c2ccc([N+](=O)[O-])cc2)C(=O)/C(=C/c2ccc([N+](=O)[O-])cc2)C1 [b-AP15]
  caspase-like, trypsin-like and chymotrypsin-like activities of the proteasome: do not show alteration
